What is called inhibition is the relative decrease from the control value, in per cent. In general, IC50 refers to the point on the concentration scale where inhibition reaches its midpoint.

The record followed here is ChEMBL document CHEMBL5325447, “Synthesis and SAR study of novel diimide skeleton compounds with the anti-inflammatory activities in vitro and in vivo” (Bioorg Med Chem, 2023).

Activity calls are given as the source filed them. No cut-off for these calls is given here.

The subject of series [1] is RAW264.7. The series can be described thus: Antiinflammatory activity against mouse RAW264.7 cells assessed as inhibition of LPS-induced IL-6 production at 10 uM pretreated with compound for 0.5 hrs followed by incubation with LPS for 24 hrs by ELISA. The settings on record: time 24.5 hrs. It counts as functional. On the technique in general: In an ELISA, binding on a coated surface is turned into a signal by an enzyme label.

Series [2] is described as follows: Cytotoxicity against mouse RAW264.7 cells assessed as cell viability at 10 uM incubated for 24 hrs by MTT assay relative to control. The settings on record: read-out: Activity. Type of series: toxicity, cell-based. (Tetrazolium dyes change colour on reduction, which living cells bring about.)
Series [3] relates to Mus musculus. The series is described as follows: Antiinflammatory activity against LPS-induced acute lung injury C57BL/6J mouse model assessed as decrease in ratio of lung wet to dry weight at 20 mg/kg, ig administered every 12 hrs for 3 times and 30 mins later injected with LPS and measured after 5 hrs. Type of series: functional, organism-based. The note with it: time 41.5 hrs.

Series [4] concerns Mus musculus. The series is described as follows: Antiinflammatory activity against LPS-induced acute lung injury C57BL/6J mouse model assessed as decrease in disruption of lung tissue structure and alveolar wall thickening at 20 mg/kg, ig administered every 12 hrs for 3 times and 30 mins later injected with LPS and measured after 5 hrs. The settings on record: time 41.5 hrs. Type of series: functional, organism-based.

Series [5] concerns Mus musculus. The series is described as follows: Antiinflammatory activity against LPS-induced acute lung injury C57BL/6J mouse model assessed as decrease in LPS-induced F4/80 expression in lungs at 20 mg/kg, ig administered every 12 hrs for 3 times and 30 mins later injected with LPS and measured after 5 hrs by immunohistochemical staining based analysis. The settings on record: time 41.5 hrs. Type of series: functional, organism-based.

For series [6], the system named is RAW264.7. The series is described as follows: Antiinflammatory activity against mouse RAW264.7 cells assessed as inhibition of LPS-induced IL-6 production pretreated with compound for 0.5 hrs followed by incubation with LPS for 24 hrs by ELISA. It counts as functional, cell-based.
For series [7], the system named is Mus musculus. The series is described as follows: Antiinflammatory activity against LPS-induced acute lung injury C57BL/6J mouse model assessed as decrease in total protein concentration in BALF at 20 mg/kg, ig administered every 12 hrs for 3 times and 30 mins later injected with LPS and measured after 5 hrs. It counts as functional, organism-based. The note with it: time 41.5 hrs.

The test system of series [8] is Mus musculus. The series can be described thus: Antiinflammatory activity against LPS-induced acute lung injury C57BL/6J mouse model assessed as decrease in neutrophil number in BALF at 20 mg/kg, ig administered every 12 hrs for 3 times and 30 mins later injected with LPS and measured after 5 hrs by Wrigth-Giemsa staining. The settings on record: time 41.5 hrs. Type of series: functional, organism-based.

Series [9] concerns Mus musculus. The series can be described thus: Antiinflammatory activity against LPS-induced acute lung injury C57BL/6J mouse model assessed as decrease in LPS-induced IL-6 production in BALF at 20 mg/kg, ig administered every 12 hrs for 3 times and 30 mins later injected with LPS and measured after 5 hrs by ELISA. The note with it: time 41.5 hrs. It counts as functional, organism-based.

Series [10] relates to Mus musculus. The series is described as follows: Antiinflammatory activity against LPS-induced acute lung injury C57BL/6J mouse model assessed as decrease in LPS-induced TNF-alpha production in BALF at 20 mg/kg, ig administered every 12 hrs for 3 times and 30 mins later injected with LPS and measured after 5 hrs by ELISA. It counts as functional, organism-based. The settings on record: time 41.5 hrs.

Series [11] relates to Mus musculus. The series can be described thus: Antiinflammatory activity against LPS-induced acute lung injury C57BL/6J mouse model assessed as decrease in LPS-induced IL-6 production in serum at 20 mg/kg, ig administered every 12 hrs for 3 times and 30 mins later injected with LPS and measured after 5 hrs by ELISA. The note with it: time 41.5 hrs. It counts as functional, organism-based.

Series [12] relates to Mus musculus. The series is described as follows: Antiinflammatory activity against LPS-induced acute lung injury C57BL/6J mouse model assessed as decrease in LPS-induced TNF-alpha production in serum at 20 mg/kg, ig administered every 12 hrs for 3 times and 30 mins later injected with LPS and measured after 5 hrs by ELISA. Type of series: functional, organism-based. The note with it: time 41.5 hrs.

Series [13] has as its system Mus musculus. The series is described as follows: Antiinflammatory activity against LPS-induced hyperemia C57BL/6J mouse model assessed as decrease in LPS-induced death rate at 20 mg/kg, po administered 1 hr prior to LPS stimulation and measured for 1 week. It counts as functional, organism-based. The settings on record: time 1.0 weeks.
Series [14] relates to Mus musculus. The series can be described thus: Antiinflammatory activity against LPS-induced hyperemia C57BL/6J mouse model assessed as decrease in LPS-induced weight loss at 20 mg/kg, po administered 1 hr prior to LPS stimulation and measured for 1 week. Type of series: functional, organism-based. The note with it: time 1.0 weeks.
The test system of series [15] is Mus musculus. The series is described as follows: Antiinflammatory activity against LPS-induced hyperemia C57BL/6J mouse model assessed as decrease in LPS-induced morphological changes in spleen at 20 mg/kg, po administered 1 hr prior to LPS stimulation by Hematoxylin-Eosin staining based analysis. Type of series: functional, organism-based.
The test system of series [16] is RAW264.7. The series can be described thus: Antiinflammatory activity against mouse RAW264.7 cells assessed as inhibition of LPS-induced TNF-alpha production pretreated with compound for 0.5 hrs followed by incubation with LPS for 24 hrs by ELISA. It counts as functional, cell-based.

With `CC(C)Cc1ccc(C(C)C(=O)NC(=O)c2ccccc2)cc1` (configuration not stated), the inhibition at 10 µM with RAW264.7 [1] came out at 71.1%. In [2], the viability at 24 h, 10 µM came out at 91%.
The like results for `O=C(/C=C/c1ccccc1)NC(=O)c1ccccc1` were, in that order, 90.7% and 72.8%.
The like results for `O=C(/C=C/c1ccccc1)NC(=O)c1ccc2ccccc2n1` were, in that order, 83.3% and 93.2%.
For `O=C(NC(=O)c1cc2ccccc2[nH]1)c1ccccc1` the same measures were 77.2% and 90.5%.
With `O=C(/C=C/c1ccccc1)NC(=O)c1cc2ccccc2[nH]1`, the inhibition at 10 µM in the series on RAW264.7 [1] is 32%. In addition, the viability at 24 h, 10 µM in series [2] came out at 32.4%.
In the case of `CC(C)(C)OC(=O)N1CCC(C(=O)NC(=O)c2ccccc2)C1` (configuration not stated), the inhibition at 10 µM in the series on RAW264.7 [1] came out at 60.6%. In [2], the viability at 24 h, 10 µM was determined as 143%.
The like results for `COc1ccc2cc(C(C)C(=O)NC(=O)C(C)c3ccc(CC(C)C)cc3)ccc2c1` (configuration not stated) were, in that order, 55.7% and 117%.
Consider `O=C(/C=C/c1ccccc1)NC(=O)c1ccco1`, for which the inhibition at 10 µM in the series with RAW264.7 [1] is 88.6%. Besides, the viability at 24 h, 10 µM in [2] worked out at 97.3%.
The like results for `O=C(/C=C/c1ccccc1)NC(=O)/C=C/c1ccccc1` were, in that order, 82.5% and 20.2%.
The like results for `COc1ccc2cc([C@H](C)C(=O)O)ccc2c1` [NAPROXEN] were, in that order, 52.2% and 112%.
The like results for `COc1cc(/C=C/C(=O)CC(=O)/C=C/c2ccc(O)c(OC)c2)ccc1O` [CURCUMIN] were, in that order, 87% and 120%.
With `O=C(NC(=O)C1CCNC1)c1ccccc1` (configuration not stated), the inhibition at 10 µM in the series on RAW264.7 [1] was determined as 74%. Besides, the viability at 24 h, 10 µM in series [2] was 115%.
With `O=C(/C=C/c1ccccc1)NCc1cccs1`, the inhibition entry with RAW264.7 [1] was “Active”.
With `CC(C)Cc1ccc(C(C)C(=O)O)cc1` (configuration not stated) [IBUPROFEN], the inhibition at 10 µM with RAW264.7 [1] worked out at 61%. Also, the viability at 24 h, 10 µM in series [2] turned out to be 132%.
The like results for `O=C(NC(=O)c1cccnc1)c1ccccc1` were, in that order, 62% and 103%.
For `COc1ccc2cc(C(C)C(=O)NC(=O)/C=C/c3ccccc3)ccc2c1` (configuration not stated) the same measures were 79.1% and 78.5%.
The like results for `CC(C)(C)OC(=O)N1CCC(C(=O)NC(=O)/C=C/c2ccccc2)C1` (configuration not stated) were, in that order, 77.5% and 135%.
`O=C(NC(=O)c1ccco1)c1ccccc1`: in the series on RAW264.7 [1], the inhibition at 10 µM is 70.2%. For the same molecule, the viability at 24 h, 10 µM in [2] was 106%.
The like results for `O=C(/C=C/c1ccccc1)NC(=O)C1CCNC1` (configuration not stated) were, in that order, 74% and 130%.
On to `c1ccc(CCCNCc2cccs2)cc1`, for which, in the series with RAW264.7 [1], the inhibition result was “Active”.
Take `O=C(CCc1ccccc1)NCc1cccs1`: the inhibition result in the series with RAW264.7 [1] was “Active”.
With `C[C@@H]1C[C@H]2[C@@H]3CCC4=CC(=O)C=C[C@]4(C)[C@@]3(F)[C@@H](O)C[C@]2(C)[C@@]1(O)C(=O)CO`, the result with Mus musculus [3], in the series on Mus musculus [4] and with Mus musculus [5] was Active.
Turning to `O=C(NC(=O)c1cccs1)c1ccccc1`, in the series with RAW264.7 [1], the inhibition at 10 µM turned out to be 62.3%. Moreover, the viability at 24 h, 10 µM in series [2] stood at 99.3%.
In the case of `O=C(CCc1ccccc1)NC(=O)c1cccs1`, in the series on RAW264.7 [1], the inhibition entry was “Active”.
For `COc1ccc2cc(C(C)C(=O)NC(=O)c3ccccc3)ccc2c1` (configuration not stated), the inhibition at 10 µM with RAW264.7 [1] was 71.2%. Also, in [2], the viability at 24 h, 10 µM worked out at 89.7%.
For `CC(C)Cc1ccc(C(C)C(=O)NC(=O)/C=C/c2ccccc2)cc1` (configuration not stated) the same measures were 90.1% and 94.4%.
The like results for `O=C(NC(=O)c1ccccc1)c1ccccc1` were, in that order, 66.7% and 109%.
Consider `O=C(/C=C/c1ccccc1)NC(=O)c1cccs1`, for which, in the series with RAW264.7 [1], the inhibition at 10 µM is 94.8%. Further, the viability at 24 h, 10 µM in series [2] was 110%. Also, the concentration for half-maximal inhibition (IC50) in the series with RAW264.7 [6] was found to be 1.59 µM; in the series with RAW264.7 [16], 15.3 µM. The inhibition result in the series on RAW264.7 [6] (time 24.5 hrs) and in the series on RAW264.7 [16] (time 24.5 hrs) was “Dose-Dependent Effect” throughout. Besides, the result in the series on Mus musculus [7], in the series with Mus musculus [8], with Mus musculus [9], with Mus musculus [3], with Mus musculus [4] and in the series on Mus musculus [10] was Active. Further, the outcome in the series on Mus musculus [11], in the series on Mus musculus [12], in the series with Mus musculus [5], in the series on Mus musculus [13], with Mus musculus [14] and with Mus musculus [15] was Active.
With `O=C(NCCCc1ccccc1)c1cccs1`, the inhibition entry with RAW264.7 [1] was “Active”.
Take `O=C(NC(=O)c1ccc2ccccc2n1)c1ccccc1`: the inhibition at 10 µM in the series with RAW264.7 [1] came out at 74%. In series [2], the viability at 24 h, 10 µM amounted to 88.2%.
